From US9586903B2, “Isoquinoline derivatives” (Hoffmann-La Roche Inc., priority 2013, dated 2017)

The molecules below were run on human embryonic stem cell derived neural stem cells (NSCs) (assay: Neural stem cell proliferation assay (neurogenesis assay, ATP/CellTiterGlo readout)). Conditions: Homo sapiens, Neural stem cell, 96 h; Table 1, novel compounds; concentration at which 150% activity of control (100%) is reached; 4 days incubation.
Assay type: cell-based
Experimental: Neural Stem Cell Proliferation Assay
Neurogenic properties of small molecules are determined based on the proliferation of human embryonic stem cell derived neural stem cells (NSCs) which were derived via a dual smad inhibition as previously described (Chambers, S. M., et al., Highly efficient neural conversion of human ES and iPS cells by dual inhibition of SMAD signaling, Nature biotechnology, 2009. 27(3): p. 275-80.)
Compounds respond is measured by the increase in cells based on ATP levels (Promega:CellTiterGlo®) after an incubation period of 4 days.
NSCs are thawed and expanded over 3 passages. On the 14th day, NSCs are seeded in Polyornithin/Laminin coated 384 well plates at a cell density of 21′000 cells/cm^2 in a media volume of 38 μl.
4 hours after cell seeding, compound solutions are added at a volume of 2 μl. Stock solutions of the compounds (water, 5% DMSO) are diluted to obtain a dose response (11 points, dilution factor is 2), ranging from 8 μM to 8 nM. Controls are run to consistently determine the neurogenic properties of the cells:
Negative (neutral) control is cell culture Media (final DMSO concentration: 0.25%).
1. cell culture Media+100 ng/ml FGF2 (final DMSO concentration: 0.1%)
2. cell culture Media+20 ng/ml EGF (final DMSO concentration: 0.1%)
3. cell culture Media+100 ng/ml Wnt3a (final DMSO concentration: 0.1%)
After 4 days incubation at 37° C., 5% CO2, the amount of ATP per well is quantified. The ATP concentration is proportional to the cell number. ATP is quantified by using the Promega CellTiterGlo® kit. The CellTiterGlo® reagents contain a cell lysis buffer, a thermo stable luciferase (UltraGlo™ recombinant luciferase), magnesium and luciferin. Luciferin reacts with ATP producing oxyluciferin, AMP and light. The luminescence signal is proportional to the ATP content.
The value of negative (neutral) control is determined for each assay plate by taking the average of 16 negative control wells. The neurogenic compound response is calculated for each compound as (compound/Negative Control)*100.
The values of EC150 from the dose response curve are determined for each test compound. The EC150 is the compound concentration at which 150% activity of control (100%) is reached.

`O=C(NCc1ccccc1)c1ccc2cncc(-c3ccncc3)c2c1` [Example 1, N-Benzyl-4-(pyridin-4-yl)isoquinoline-6-carboxamide] and `O=C(NCc1ccccc1)c1ccc2cncc(-c3ccc(Cl)cc3)c2c1` [Example 2, N-benzyl-4-(4-chlorophenyl)isoquinoline-6-carboxamide] are within 1.5-fold of each other in EC (150% of control): 0.07 µM for the first, 0.09 µM for the second.

`O=C(c1ccc2cncc(-c3ccc(Cl)cc3)c2c1)N1CCS(=O)(=O)CC1` [Example 3, [4-(4-Chloro-phenyl)-isoquinolin-6-yl]-(1,1-dioxo-thiomorpholin-4-yl)-methanone] and `CN1CCN(C(=O)c2ccc3cncc(-c4ccc(Cl)cc4)c3c2)CC1` [Example 19, (4-(4-Chlorophenyl)isoquinolin-6-yl)(4-methylpiperazin-1-yl)methanone] are within 1.5-fold of each other in EC (150% of control): 0.16 µM for the first, 0.11 µM for the second.

First: CC(C)(C)CNC(=O)c1ccc2cncc(-c3ccc(Cl)cc3)c2c1 [Example 4, 4-(4-Chloro-phenyl)-isoquinoline-6-carboxylic acid (2,2-dimethyl-propyl)-amide]
Second: CC(C)(C)NC(=O)c1ccc2cncc(-c3ccc(Cl)cc3)c2c1 [Example 23, N-tert-Butyl-4-(4-chlorophenyl)isoquinoline-6-carboxamide]
The EC (150% of control) of the first is 3.8-fold lower: 0.19 µM for the first, 0.73 µM for the second.

First: O=C(NC1CC1)c1ccc2cncc(-c3ccc(Cl)cc3)c2c1 [Example 5, 4-(4-Chlorophenyl)-N-cyclopropylisoquinoline-6-carboxamide]
Second: O=C(NC1CCOC1)c1ccc2cncc(-c3ccc(Cl)cc3)c2c1 (stereo not shown) [Example 16, 4-(4-Chlorophenyl)-N-(tetrahydrofuran-3-yl)isoquinoline-6-carboxamide]
The EC (150% of control) of the first is 25-fold lower: 0.03 µM for the first, 0.76 µM for the second.

`O=C(NCC1CC1)c1ccc2cncc(-c3ccc(Cl)cc3)c2c1` [Example 6, 4-(4-Chlorophenyl)-N-(cyclopropylmethyl)isoquinoline-6-carboxamide] and `CN(CC1CC1)C(=O)c1ccc2cncc(-c3ccc(Cl)cc3)c2c1` [Example 21, 4-(4-Chlorophenyl)-N-(cyclopropylmethyl)-N-methylisoquinoline-6-carboxamide] are within 1.5-fold of each other in EC (150% of control): 0.19 µM for the first, 0.21 µM for the second.

Compared with `CS(=O)(=O)CCNC(=O)c1ccc2cncc(-c3ccc(Cl)cc3)c2c1` [Example 7, 4-(4-Chlorophenyl)-N-(2-(methylsulfonyl)ethyl)isoquinoline-6-carboxamide], `CS(=O)(=O)NNC(=O)c1ccc2cncc(-c3ccc(Cl)cc3)c2c1` [Example 25, N′-(4-(4-Chlorophenyl)isoquinoline-6-carbonyl)methanesulfonohydrazide] is 3.5-fold lower in EC (150% of control): 0.07 µM for the first, 0.02 µM for the second.

`O=C(NCc1cccnc1)c1ccc2cncc(-c3ccc(Cl)cc3)c2c1` [Example 8, 4-(4-Chlorophenyl)-N-(pyridin-3-ylmethyl)isoquinoline-6-carboxamide] and `O=C(NCc1ccccn1)c1ccc2cncc(-c3ccc(Cl)cc3)c2c1` [Example 11, 4-(4-Chlorophenyl)-N-(pyridin-2-ylmethyl)isoquinoline-6-carboxamide] are within 1.5-fold of each other in EC (150% of control): 0.08 µM for the first, 0.09 µM for the second.

Going from `CS(=O)(=O)c1ccc(CNC(=O)c2ccc3cncc(-c4ccc(Cl)cc4)c3c2)cc1` [Example 9, 4-(4-chlorophenyl)-N-(4-(methylsulfonyl)benzyl)isoquinoline-6-carboxamide] to `CS(=O)(=O)c1cccc(CNC(=O)c2ccc3cncc(-c4ccc(Cl)cc4)c3c2)c1` [Example 12, 4-(4-Chlorophenyl)-N-(3-(methylsulfonyl)benzyl)isoquinoline-6-carboxamide], the EC (150% of control) falls from 0.85 µM to 0.1 µM (8.5-fold).

First: COc1ccccc1CNC(=O)c1ccc2cncc(-c3ccc(Cl)cc3)c2c1 [Example 10, 4-(4-Chlorophenyl)-N-(2-methoxybenzyl)isoquinoline-6-carboxamide]
Second: O=C(Nc1ccccc1)c1ccc2cncc(-c3ccc(Cl)cc3)c2c1 [Example 13, 4-(4-Chlorophenyl)-N-phenylisoquinoline-6-carboxamide]
The EC (150% of control) of the first is 7.9-fold lower: 0.09 µM for the first, 0.71 µM for the second.

`O=C(NCC(F)(F)F)c1ccc2cncc(-c3ccc(Cl)cc3)c2c1` [Example 14, 4-(4-Chlorophenyl)-N-(2,2,2-trifluoroethyl)isoquinoline-6-carboxamide] and `O=C(NCCC(F)(F)F)c1ccc2cncc(-c3ccc(Cl)cc3)c2c1` [Example 24, 4-(4-Chlorophenyl)-N-(3,3,3-trifluoropropyl)isoquinoline-6-carboxamide] are within 1.5-fold of each other in EC (150% of control): 0.05 µM for the first, 0.06 µM for the second.

Going from `CC(C)NC(=O)c1ccc2cncc(-c3ccc(Cl)cc3)c2c1` [Example 15, 4-(4-Chlorophenyl)-N-isopropylisoquinoline-6-carboxamide] to `CC(C)(CO)NC(=O)c1ccc2cncc(-c3ccc(Cl)cc3)c2c1` [Example 17, 4-(4-Chlorophenyl)-N-(1-hydroxy-2-methylpropan-2-yl)isoquinoline-6-carboxamide], the EC (150% of control) rises from 0.98 µM to 2.5 µM (2.6-fold).

`O=C(c1ccc2cncc(-c3ccc(Cl)cc3)c2c1)N1CCOCC1` [Example 18, (4-(4-Chlorophenyl)isoquinolin-6-yl)(morpholino)methanone] and `O=C(c1ccc2cncc(-c3ccc(Cl)cc3)c2c1)N1CCC(O)C1` (stereo not shown) [Example 22, (4-(4-Chlorophenyl)isoquinolin-6-yl)(3-hydroxypyrrolidin-1-yl)methanone] are within 1.5-fold of each other in EC (150% of control): 0.38 µM for the first, 0.28 µM for the second.

First: CC1(CNC(=O)c2ccc3cncc(-c4ccc(Cl)cc4)c3c2)CCC(=O)N1 (stereo not shown) [Example 20, 4-(4-Chlorophenyl)-N-((2-methyl-5-oxopyrrolidin-2-yl)methyl)isoquinoline-6-carboxamide]
Second: CN(NC(=O)c1ccc2cncc(-c3ccc(Cl)cc3)c2c1)S(C)(=O)=O [Example 28, N′-(4-(4-Chlorophenyl)isoquinoline-6-carbonyl)-N-methylmethanesulfonohydrazide]
The EC (150% of control) of the first is 2.2-fold lower: 0.18 µM for the first, 0.39 µM for the second.

Compared with `Cn1cc(NC(=O)c2ccc3cncc(-c4ccc(Cl)cc4)c3c2)cn1` [Example 26, 4-(4-Chlorophenyl)-N-(1-methyl-1H-pyrazol-4-yl)isoquinoline-6-carboxamide], `CC(NC(=O)c1ccc2cncc(-c3ccc(Cl)cc3)c2c1)c1cccc(S(C)(=O)=O)c1` (stereo not shown) [Example 27, 4-(4-Chlorophenyl)-N-(1-(3-(methylsulfonyl)phenyl)ethyl)isoquinoline-6-carboxamide] is 2.5-fold higher in EC (150% of control): 0.32 µM for the first, 0.79 µM for the second.

Going from `NC(=O)c1ccc2cncc(C3=CCOCC3)c2c1` [Example 29, 4-(3,6-Dihydro-2H-pyran-4-yl)isoquinoline-6-carboxamide] to `NC(=O)c1ccc2cncc(-c3ccc(Cl)nc3)c2c1` [Example 32, 4-(6-Chloropyridin-3-yl)isoquinoline-6-carboxamide], the EC (150% of control) falls from 0.14 µM to 0.02 µM (7-fold).

First: N#Cc1ccc(-c2cncc3ccc(C(N)=O)cc23)cc1 [Example 30, 4-(4-Cyanophenyl)isoquinoline-6-carboxamide]
Second: NC(=O)c1ccc2cncc(-c3ccc(Cl)cc3Cl)c2c1 [Example 31, 4-(2,4-Dichlorophenyl)isoquinoline-6-carboxamide]
The EC (150% of control) of the first is 2-fold lower: 0.03 µM for the first, 0.06 µM for the second.

Same assay, conditions: Table 2, known compounds; 4 days incubation

Compared with `NC(=O)c1ccc2cncc(-c3ccc(Cl)cc3)c2c1` [Example 33, 4-(4-Chlorophenyl)isoquinoline-6-carboxamide], `NC(=O)c1ccc2cncc(-c3ccc(C(F)(F)F)cc3)c2c1` [Example 34, 4-(4-(Trifluoromethyl)phenyl)isoquinoline-6-carboxamide] is 2-fold higher in EC (150% of control): 0.01 µM for the first, 0.02 µM for the second.
